# Reference: US5096904A, “Pyridazinones having cardiotonic and beta blocking activities” (Glaxo Inc., priority 1990, dated 1992)
# Test system: dP/dt (contractility) in barbiturate-anesthetized dogs
# Assay: Anesthetized dog, inotropic effect (baseline left ventricular dP/dt)
# Assay type: in vivo, mongrel dogs
# Settings: with atenolol
# Procedure: Inotropic effects were evaluated in barbiturate-anesthetized dogs by differentiating left intraventricular pressure. This procedure was carried out essentially as described by M. K. Grizzel et al in the FASEB Journal, Vol. 3, page 1039, abstract 4728 (1989). […] Cardiac output was determined via thermodilution with a Spectramed computer (Starcom, Oxnard, Calif.) and a 5F Swan Ganz catheter which was inserted into the right jugular vein and positioned in the pulmonary artery. […] A lead II electrocardiogram was measured using subcutaneous electrodes. […] Rectal temperature was monitored and maintained at 37°-38° C. with a heating pad (Baxter Health Care model K20, McGaw Park, Ill.). All variables were recorded using a Gould 3800S physiograph.
# Isoproterenol (0.1-0.5 mg/kg) was injected i.v. into the cephalic vein at 10 min intervals except for when the test drug infusion was begun. […] Inhibition of the isoproterenol responses on contractility (dP/dt), heart rate and diastolic blood pressure were determined at each dose of test compound. The inotropic effect of each compound was determined by comparing the level of dP/dt at the end of each 10 min period to that of the level of dP/dt just prior to the infusion of test compound. […]
smiles,measurement,value
"O=C(COc1ccc(C2=NNC(=O)CC2)cc1Cl)NCCNC[C@H](O)COc1ccccc1 [Example 19, 6-{4-[N-[2-[3-phenoxy-2-hydroxypropylamino]ethyl]carbamoylmethoxy]-3-chlorophenyl}-4,5-dihydro-3(2H)-pyridazinone]","inotropic effects, blockade by atenolol",not blocked by atenolol
